In patent publication US20210299116A1, “METHODS FOR REDUCING ABNORMAL SCAR FORMATION” (CORNELL UNIVERSITY, priority 2018, published 2021):
“Also recorded” adds a separate entry of the source.

How the values were obtained:
[1] = test system: smooth muscle actin (SMA) in fibroblasts; experiment: TGF-β induced smooth muscle actin (SMA) in fibroblasts (Western blot, immunohistochemistry); format: cell-based; details: TGF-β stimulated fibroblasts
Excerpt: Scar contracture is a painful aspect of hypertrophic scarring due to increased SMA in the fibroblasts. During the inflammatory phase of wound healing, the cytokine transforming growth factor β (TGF-β) is secreted and can activate fibroblasts to produce SMA.

[2] = test system: HLF cells (fibroblasts); experiment: in vitro gel contraction assay; format: cell-based; details: for TGF-β induced fibroblast contracture (gel contraction): TGF-β + RXD, 48 hour incubation
Method: Evaluation of fibroblasts contractility was performed as previously described by […] et al (Bio-protocol 8(18): e3021, 2018). Briefly, HLF cells are resuspended in 1 mg/ml collagen and then pipetted into 24 well plates. Collagen is allowed to solidify for 30 minutes at room temperature. Media (500 μl) is then added to each of the wells and the gels are dissociated from the walls of the well. Gels are treated and allowed to incubate for 48 hours at 37° C. and 5% CO2. After the 48 hour incubation, gels are stained with crystal violet stain in order to better visualize contraction. Images are analyzed using Image J software and the fold change compared to a no cell control is determined.

[3] = test system: incisional wound in C57bl/6 mice; experiment: rodent incisional wound model, incision sutured with silk imbedded with drug; format: in vivo, mouse
Excerpt: As there are no murine models for hypertrophic or keloid scarring, the inventors relied on a classic rodent incisional wound model consisting of a longitudinal para-vertebral incision 1-2 cm long through the entire thickness of the skin and cutaneous muscle. Wounds (WD) and size matched pieces of dorsal dermis (CTR) were excised and processed for light and polarized light microscopy: fixation, embedding, sectioning and stained with hematoxylin-eosin (inflammatory cells) and Gomori Trichrome (collagen staining), tensile strength measurements and qPCR.
In some experiments, a drug was delivered locally and directly to the wound. In some embodiments, the drug was impregnated in the wound closure material, silk suture. In some experiments, the drug was eluted into the wound during wound healing leading to closure and scar formation. Wound healing was monitored over 14 days.
Wounds (WD) and size matched pieces of dorsal dermis (CTR) were excised and processed for light microscopy: fixation, embedding, sectioning and stained with hematoxylin-eosin (inflammatory cells) and Gomori Trichrome (collagen staining).
Using wild type C57bl/6 mice, wound healing experiments were next performed where the incision was sutured with silk imbedded with ketotifen, a mast cell stabilizer. This way the drug could be delivered continuously and locally during wound healing.

[4] = 14 days post-incision, C57bl/6 mice, ketotifen-impregnated silk vs untreated silk

SMILES	SMA staining of fibroblasts (immunohistochemistry) [1]	abundance of TGF-β induced SMA in fibroblasts (Western blot) [1]	abundance of TGF-β induced SMA in fibroblasts (Western blot) ([1]; listed as Roxadustat)	fibroblast gel contraction, change from control ([2]; RXD added alone, vs control)	TGF-β induced fibroblast contracture (gel contraction) [2]	TGF-β induced fibroblast contracture (gel contraction) ([2]; listed as Roxadustat)	relative abundance of newly synthesized collagen III mRNA in excised wound scar (q-PCR) ([3]; 14-day, drug group compared to untreated)	inflammatory response to the incisional wound (immune cells in H&E stained scar) ([3]; 7 days post-incision, C57bl/6 mice, ketotifen eluted from silk suture vs untreated wound)	scar collagen content (Gomori trichrome stain) [3, 4]	scar width (Gomori trichrome stain) [3, 4]	tensile strength of the scar (peak tension, tensitometry) ([3]; 14 days post-incision, ketotifen-treated vs untreated mice)	newly synthesized collagen III in wound scar (birefringence microscopy) ([3]; ketotifen eluted from suture vs suture alone)
Cc1nc(C(=O)NCC(=O)O)c(O)c2ccc(Oc3ccccc3)cc12 [RXD, N-[(4-hydroxy-1-methyl-7-phenoxyisoquinolin-3-yl)carbonyl]glycine]	inhibited	inhibited	significantly reduces	significant changes	inhibited	significantly reduces	–	–	–	–	–	–
CN1CCC(=C2c3ccccc3CC(=O)c3sccc32)CC1 [ketotifen]	–	–	–	–	–	–	significantly less	lessens the inflammatory response	decreases	significantly less; also recorded: decreases	not affected	less newly synthesized collagen III; also recorded: decreases newly synthesized collagen (III)
